In assay [1] the test system is Saccharomyces cerevisiae. Put plainly: DNA damaging activity against DNA repair-proficient yeast RAD+ assessed as drug level required to produce 12 mm zone of inhibition. The class given is functional.
In the next assay the test system is Vero. Kind of assay: Cytotoxicity against african green monkey Vero cells after 7 days by XTT assay. The format is cell-based. The note with it: Chlorocebus sabaeus, 168 h. Background: Tetrazolium dyes change colour on reduction, which living cells bring about.
Assay [2] relates to Saccharomyces cerevisiae. Put plainly: DNA damaging activity against DNA repair-deficient yeast rad 52 assessed as drug level required to produce 12 mm zone of inhibition. The format is functional.
Assay [3] relates to Saccharomyces cerevisiae. Put plainly: DNA damaging activity against DNA repair-deficient yeast rad 6 assessed as drug level required to produce 12 mm zone of inhibition. The class given is functional.
The subject of assay [4] is Saccharomyces cerevisiae. Kind of assay: DNA damaging activity against DNA repair-deficient yeast rad 52Y assessed as drug level required to produce 12 mm zone of inhibition. The class given is functional.

Converted amounts (≈) assume the structure as drawn.

Broadly, the IC50 is the concentration that inhibits the measured activity by half.

Turning to `CC[C@@]1(O)C(=O)OCc2c1cc1n(c2=O)Cc2cc3ccccc3nc2-1` [CAMPTOTHECIN], the IC12 with Saccharomyces cerevisiae [1] is 110 µg/mL; with Saccharomyces cerevisiae [2], 0.6 µg/mL; with Saccharomyces cerevisiae [3], 8.7 µg/mL. Further, the IC50 in the assay with Vero is 0.02 µg/mL (≈ 0.0574 µM).

Regarding `CC1(C)C=Cc2c(ccc3ccc(=O)oc23)O1` [SESALIN], the IC12 with Saccharomyces cerevisiae [1] worked out at 220 µg/mL; in the assay with Saccharomyces cerevisiae [2], 33 µg/mL; in the assay with Saccharomyces cerevisiae [4], 87 µg/mL; with Saccharomyces cerevisiae [3], 480 µg/mL. In the assay on Vero, this compound came in with an IC50 of 12 µg/mL (≈ 52.6 µM).

For `CC1(C)C=Cc2cc3ccc(=O)oc3cc2O1` [XANTHYLETIN], the IC12 with Saccharomyces cerevisiae [1] came to 21 µg/mL; in the assay on Saccharomyces cerevisiae [2] it was 52 µg/mL; in the assay on Saccharomyces cerevisiae [4], 87 µg/mL; in the assay with Saccharomyces cerevisiae [3], 318 µg/mL. Besides, the IC50 with Vero was greater than 20 µg/mL.

For the origin of these results see ChEMBL document CHEMBL1149059, “Biological activity of some coumarins from Sri Lankan Rutaceae” (J Nat Prod, 1994).
